Results as given in US9512118B2, “Crystal of fused heterocyclic compound” (TAKEDA PHARMACEUTICAL COMPANY LIMITED, priority 2011, dated 2016).
Values after ≈ are worked out from the molar mass of the structure shown. Where two headings read alike, the source gives them in different places. Each block holds one compound with its values, some of them ahead of it.

Legend:
[1] = room temperature
Excerpt: After stirring for one week, and after stirring for 2 weeks, the crystals of 1-ethyl-7-methyl-3-{4-[(3-methyl-3H-imidazo[4,5-b]pyridin-2-yl)oxy]phenyl}-1,3-dihydro-2H-imidazo[4,5-b]pyridin-2-one formed were collected by filtration, and the crystal form of the crystalline products was confirmed.

[2] = Study of crystallization from various solvents (solubility at 55° C. and crystal form obtained); type: physicochemical; settings: for solubility: 55 °C, organic solvent or mixture, thermodynamic from solid; for crystal form: dissolved at 55° C., cooled to 0-5° C., stirred 8 hr
Protocol: This solution was filtered through a filter with 0.22 μm pore size, and cooled to 0-5° C. with stirring. The mixture was stirred for 8 hr under cooling at 0-5° C.

[3] = 80° C., 1 week, sealed glass bottle
[4] = 80° C., 2 weeks, sealed glass bottle

- crystal form 1 week later ([1]; suspended in 1-butanol): Form A
- crystal form 2 weeks later ([1]; suspended in 1-butanol): Form A
- crystal form 1 week later ([1]; suspended in acetone): Form G
- crystal form 2 weeks later ([1]; suspended in acetone): Form G
- crystal form 1 week later ([1]; suspended in ethyl acetate): Form A + Form G
- crystal form 2 weeks later ([1]; suspended in ethyl acetate): Form G
- crystal form 1 week later ([1]; suspended in isopropyl alcohol): Form A
- crystal form 2 weeks later ([1]; suspended in isopropyl alcohol): Form A
- crystal form 1 week later ([1]; suspended in methanol): Form G
- crystal form 2 weeks later ([1]; suspended in methanol): Form G
- crystal form 1 week later ([1]; suspended in methylethylketone): Form G
- crystal form 2 weeks later ([1]; suspended in methylethylketone): Form G
- crystal form 1 week later ([1]; suspended in tetrahydrofuran): Form G
- crystal form 2 weeks later ([1]; suspended in tetrahydrofuran): Form G
- crystal form 1 week later ([1]; suspended in toluene): Form G
- crystal form 2 weeks later ([1]; suspended in toluene): Form G
- solubility ([2]; solvent 2-propanol): < 2700 µg/mL
- solubility ([2]; solvent acetone): 6500 µg/mL (≈ 16.2 mM)
- solubility ([2]; solvent acetonitrile): 8100 µg/mL (≈ 20.2 mM)
- solubility ([2]; solvent chloroform): > 200000 µg/mL
- solubility ([2]; solvent ethanol): 2600 µg/mL (≈ 6.49 mM)
- solubility ([2]; solvent ethyl acetate): 3400 µg/mL (≈ 8.49 mM)
- solubility ([2]; solvent methanol): 5600 µg/mL (≈ 14 mM)
- solubility ([2]; solvent methylethylketone): 6800 µg/mL (≈ 17 mM)
- solubility ([2]; solvent tetrahydrofuran): 26000 µg/mL (≈ 64.9 mM)
- solubility ([2]; solvent toluene): 5200 µg/mL (≈ 13 mM)
- solubility ([2]; solvent trifluoroethanol): > 200000 µg/mL
- crystal form ([2]; crystallized from 2-propanol): Form A
- crystal form ([2]; crystallized from acetone): Form A
- crystal form ([2]; crystallized from acetonitrile): Form B
- crystal form ([2]; crystallized from chloroform): Form A
- crystal form ([2]; crystallized from ethanol): Form A
- crystal form ([2]; crystallized from ethyl acetate): Form A
- crystal form ([2]; crystallized from methanol): Form A
- crystal form ([2]; crystallized from methylethylketone): Form A
- crystal form ([2]; crystallized from tetrahydrofuran): Form A
- crystal form ([2]; crystallized from toluene): Form G
- crystal form ([2]; crystallized from trifluoroethanol): Form D
Structure (SMILES): CCn1c(=O)n(-c2ccc(Oc3nc4cccnc4n3C)cc2)c2nccc(C)c21 [Form A, 1-ethyl-7-methyl-3-{4-[(3-methyl-3H-imidazo[4,5-b]pyridin-2-yl)oxy]phenyl}-1,3-dihydro-2H-imidazo[4,5-b]pyridin-2-one]

- appearance [3]: no change
- area percentage (%) of HPLC peak area of main form [3]: 99.7%
- crystal form [3]: Form G
- appearance [4]: no change
- area percentage (%) of HPLC peak area of main form [4]: 99.6%
- crystal form [4]: Form G
- appearance (prestorage): white crystalline
- area percentage (%) of HPLC peak area of main form (prestorage): 99.7%
- crystal form (prestorage): Form G
Structure (SMILES): CCn1c(=O)n(-c2ccc(Oc3nc4cccnc4n3C)cc2)c2nccc(C)c21 [Form G, 1-ethyl-7-methyl-3-{4-[(3-methyl-3H-imidazo[4,5-b]pyridin-2-yl)oxy]phenyl}-1,3-dihydro-2H-imidazo[4,5-b]pyridin-2-one]
